Test results taken from ChEMBL document CHEMBL3638502, “Isonicotinamide orexin receptor antagonists” (2013).

Biological target: T1, Orexin receptor type 2 (Homo sapiens, UniProt O43614)
T1 sequence (O43614 whole entry): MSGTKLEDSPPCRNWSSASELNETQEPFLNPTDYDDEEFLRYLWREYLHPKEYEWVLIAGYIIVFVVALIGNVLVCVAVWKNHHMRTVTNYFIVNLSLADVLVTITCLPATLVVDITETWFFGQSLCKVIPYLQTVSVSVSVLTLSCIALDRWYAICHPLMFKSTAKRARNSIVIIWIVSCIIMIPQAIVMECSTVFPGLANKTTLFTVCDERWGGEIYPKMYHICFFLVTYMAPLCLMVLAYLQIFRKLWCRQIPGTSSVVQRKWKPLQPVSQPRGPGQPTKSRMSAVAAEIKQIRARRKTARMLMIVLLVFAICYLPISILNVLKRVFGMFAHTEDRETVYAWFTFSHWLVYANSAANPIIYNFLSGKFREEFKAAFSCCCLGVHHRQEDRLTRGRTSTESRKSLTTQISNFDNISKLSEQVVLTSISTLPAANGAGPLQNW
Test: FLIPR Ca2+ Flux Assay: Assay methodology using FLIPR Ca2+ Flux Assay (Okumura et al., Biochem. Biophys. Res. Comm. 280:976-981, 2001).
Format: functional

Compound COc1ccc(CNC(=O)c2cc(-c3cncc(C)c3)ncc2-c2ccccc2)nc1OC has a Ki of 0.72 nM.
